Experimental data published in US11541029B2, “High penetration compositions and their applications” (Techfields Pharma Co., Ltd., priority 2008, dated 2023).

Columns and labels:
normal SD rats (SLAC/SD) = assay: Blood glucose in normal SD rats treated with HPCs of NSAIAs; assay type: in vivo; details: 30 mg/kg transdermally once per day, no fasting
Experimental: (§1) A HPC in the present disclosure lowered blood glucose levels in rat models (SLAC/GK, type 2 diabetes, n=7). 30 mg/kg of 8% diethylaminoethyl acetylsalicylate.HCl salt (P-1, in 25% ethanol); 4-acetamidophenyl salicylyldimethylaminobutyrate.HCl (P-6, in 25% ethanol), diethylaminoethyl 5-(2,4-difluorophenyl)acetylsalicylate.5-(2,4-difluorophenyl)acetylsalicylic acid salt (P-8, in 25% ethanol), diethylaminoethyl salicylsalicylate.HCl salt (P-9, in 25% ethanol), diethylaminoethyl salicylate.AcOH(P-10, in 25% ethanol), diethylaminoethyl 5-acetamido-acetylsalicylate.HCl(P-58, in 25% ethanol), diethylaminoethyl acetylsalicylsalicylate. HCl salt (P-59, in 25% ethanol), diethylaminoethyl acetylsalicylsalicylsalicylate. HCl salt (P-60, in 25% ethanol) were administered transdermally to the backs (6 cm^2, fur was shaved) of GK rats (SLAC/GK, 14-16 weeks old) and normal SD rats (SLAC/SD, 14-16 weeks old) once per day (at 8 am) for 6 weeks.
(§2) The blood glucose levels were measured once every 3 days at 4:30 pm (no fasting) from the third week to the sixth week as shown in Table 10a and 10b. […] Moreover, the blood glucose levels of the rats stayed at normal level (6-9 mmol/L, no fasting) after the treatment was stopped for 40 days.

[1] = system: GK rats (SLAC/GK, type 2 diabetes); assay: Anti-diabetes (type II) activity of HPCs of NSAIAs in GK rats; assay type: in vivo; details: 30 mg/kg transdermally once per day, no fasting
Experimental: as §1, §2

SLAC/DB/DB obese mice = assay: Blood glucose and blood lipid levels in DB/DB mice; assay type: in vivo; details: 30 mg/kg transdermally once per day
Experimental: HPCs in the present disclosure lowered blood glucose levels and blood lipid levels in mice models (SLAC/DB/DB, obese mice, n=7). 30 mg/kg of 8% diethylaminoethyl acetylsalicylate.HCl salt (P-1, in 25% ethanol); 4-acetamidophenyl salicylyldimethylaminobutyrate.HCl (P-6, in 25% ethanol), diethylaminoethyl 5-(2,4-difluorophenyl)acetylsalicylate.5-(2,4-difluorophenyl)acetylsalicylic acid salt (P-8, in 25% ethanol), diethylaminoethyl salicylsalicylate.HCl salt (P-9, in 25% ethanol), diethylaminoethyl salicylate.AcOH(P-10, in 25% ethanol), diethylaminoethyl 5-acetamido-acetylsalicylate.HCl(P-58, in 25% ethanol), diethylaminoethyl acetylsalicylsalicylate.HCl salt (P-59, in 25% ethanol), diethylaminoethyl acetylsalicylsalicylsalicylate.HCl salt (P-60, in 25% ethanol) were administered transdermally to the backs (4 cm^2,fur was shaved) of DB/DB mice(SLAC/DB/DB, 10-12 weeks old) once per day (at 8 am) for 5 weeks. The blood glucose levels were measured once per week and blood lipid levels were measured once every other week.

[2] = system: autologous blood clots injected in femoral vein (pulmonary thrombus); assay: Anti-thrombosis activity, autologous blood clots in rabbits; assay type: in vivo, Chinese White rabbits; details: 50 mg/kg topically to the back twice per day, 5 days
Experimental: Eighteen Chinese White rabbits weighing between 3.0 and 3.5 kg (aged 6-7 months) were selected and divided into three groups (control, P-1 and […] groups, n=6). One hour before the experiment, thrombi were made by aspirating venous blood (1 ml) into a sterilized bottle to clot. To avoid fragmentation and slow lysis, the autologous blood clots were stabilized in temperature-controlled (70° C.) distilled water for 10 min. After anesthesia, the femoral veins were exposed and distally isolated, and autologous blood clots (0.05 g/kg) were injected through an indwelling catheter (20GA), which had been placed in the femoral vein isolated earlier. 50 mg/kg of diethylaminoethyl acetylsalicylate.HCl salt (P-1, 10% in 25% ethanol) and diethylaminoethyl acetylsalicylsalicylate.HCl salt (P-59, 10% in 25% ethanol) were topically applied to the back of the rabbits twice per day. After 5 days, rabbits were euthanized with an excessive intravenous injection of sodium amobarbital (60 mg/kg). The lungs and hearts were isolated to observe whether thrombi were present in the pulmonary arteries. The lungs were immersed in 10% formalin for 24 h. Consecutive transverse sections along the obstructed pulmonary arteries were paraffin-embedded and stained with hematoxylin-eosine. […]

[3] = system: SLAC:NOD-IDDM, type 1 diabetes; assay: Anti-diabetes (type I) activity of HPCs of NSAIAs; assay type: in vivo, mice
From the text: 10% aqueous solution of diethylaminoethyl acetylsalicylate.acetylsalicylic acid salt (P-1, […]); 4-acetamidophenyl salicylyldimethylaminobutyrate. HCl (P-6), diethylaminoethyl 5-(2,4-difluorophenyl)acetylsalicylate.5-(2,4-difluorophenyl)acetylsalicylic acid salt (P-8), diethylaminoethyl salicylsalicylate.AcOH(P-9), diethylaminoethyl 5-acetamido-acetylsalicylate. HCl (P-58), diethylaminoethyl 2-(ρ-isobutylphenyl) propionate.citric acid (P-59), diethylaminoethyl acetylsalicylsalicylate. acetylsalicylsalicylsalicylic acid salt (P-60) (equal to of 20 mg/kg of NSAIAs) were administered transdermally to the shaved back (about 1.5 cm^2) of mice twice per day (at 8 am and 5 pm) for 7 weeks.
The blood glucose levels were measured once every 3 days at 4:30 pm (no fasting) from the fourth week to the seventh week as shown in Table 11.

[4] = system: rats given sterilized E. coli suspension as a pyrogen; assay: Antipyretic activity of ibuprofen and its HPC (Study A); assay type: in vivo; details: 20 mg/kg, oral administration
[5] = system: carrageenin-induced swelling of rat hind paw; assay: Anti-inflammatory activity, carrageenin paw swelling; assay type: in vivo, rats; details: transdermal or oral administrations
Tg2576 mouse model of AD = assay: Anti-Alzheimer disease activity in Tg2576 mice; assay type: in vivo
From the text: For many years, efforts have been focused on the development of inhibitors of β-amyloid (Aβ) formation and its related neurotoxic effects. To determine the effect of diethylaminopropyl acetylsalicylate. HCl on in vivo AD accumulation, we administered transdermally diethylaminopropyl acetylsalicylate. […] Three-month-old female transgenic mice overexpressing the human APP gene containing the Swedish mutation that causes familial AD (Tg2576 line) were used for testing the effects of diethylaminopropyl acetylsalicylate.HCl in vivo. 20 Tg2576 mice were divided into 2 groups. […] In group B (n=10), 50 mg/kg of diethylaminopropyl acetylsalicylate.HCl in 0.2 ml of pure water was applied to the back of mouse once per day for 2 months. Then the animals were killed and their brains were removed for analysis. For Aβ analysis, hemibrains were dounce homogenized in 70% formic acid at 150 mg tissue/ml formic acid solution. Homogenates were transferred to a chilled ultracentrifuge and were then spun at 100,000 g for 1 h at 4° C. Supernatants were collected and neutralized with formic acid neutralization buffer (1.0 M Tris base, 0.5 M NaH2PO4, and 0.05% NaN3; 1:20) for Aβ quantitation by ELISA. Aβ40 and Aβ42 were assayed by ELISA. Four individual experiments were performed. To compare across studies, the values for an individual study were normalized using the values obtained for the control animals included in each study. Values represent the mean±SE for the n number shown, after normalizing.
To determine if the transdermal administration of diethylaminopropyl acetylsalicylate.HCl has beneficial functional consequences, we tested 2 months of diethylaminopropyl acetylsalicylate.HCl (50 mg/kg) in the transgenic model for Alzheimer's disease in which mice develop learning deficits as amyloid accumulates. […] In the diethylaminopropyl acetylsalicylate.HCl (50 mg/kg) treated group, all mice performed superbly on the radial-arm water-maze test of working memory and untreated transgenic mice show memory deficits. […] This therapeutic approach can thus prevent and treat Alzheimer's dementia.

spinal cord injuries = assay: Spinal cord injury in paralyzed rats; assay type: in vivo; details: 5 mg in 0.2 ml water on area of injury twice per day for 1 months, n=10
Experimental: A paralyzed rat was produced by anesthetizing with chloral hydrate first, and then hitting at its spinal cord to induce spinal cord injuries. On the next day, 20 completely paralyzed rats were divided into 2 groups. […] In group B (n=10), 5 mg of diethylaminopropyl acetylsalicylate.HCl in 0.2 ml of pure water was applied to the area of injury (˜2×3 cm^2) twice per day for 1 months. After the treatment, all rats (10/10) in group A were still completely paralyzed. While all rats (10/10) in group B could walk. 4 Rats of group B acted completely normal and the other 6 rats walked more slowly and less confidently than before their injury.

**Q.** CCN(CC)CCOC(=O)c1ccccc1OC(=O)c1ccccc1OC(C)=O.Cl [P-59, diethylaminoethyl acetylsalicylsalicylate. HCl salt] was tested. Which “blood glucose, Average (Week 2-5)” value (normal SD rats (SLAC/SD)) did it give?
**A.** The value was 5.8 ± 1.0 mmol/L.

**Q.** What about the “blood glucose, Day 1” value (normal SD rats (SLAC/SD)) of the same molecule?
**A.** The value was 5.7 ± 1.3 mmol/L.

**Q.** What about the “blood glucose, Average (Week 2-5)” value [1] of the same molecule?
**A.** The value was 8.2 ± 2.7 mmol/L.

**Q.** What about the “blood glucose, Day 1” value [1] of the same molecule?
**A.** The value was 16.8 ± 3.0 mmol/L.

**Q.** And the “Cholesterol (total), Day 1” value (SLAC/DB/DB obese mice)?
**A.** The value was 6.6 ± 0.4 mmol/L.

**Q.** What about the “Cholesterol (total), Week 5” value (SLAC/DB/DB obese mice) of the same molecule?
**A.** The value was 4.7 ± 0.4 mmol/L.

**Q.** What about the “Triglycerides, Day 1” value (SLAC/DB/DB obese mice) of the same molecule?
**A.** Its value is 4.6 ± 0.4 mmol/L.

**Q.** What about the “Triglycerides, Week 5” value (SLAC/DB/DB obese mice) of the same molecule?
**A.** The value was 4.6 ± 0.5 mmol/L.

**Q.** What about the “blood glucose, Day 1” value (SLAC/DB/DB obese mice) of the same molecule?
**A.** The value was 14.2 ± 2.2 mmol/L.

**Q.** What about the “blood glucose, Week 5” value (SLAC/DB/DB obese mice) of the same molecule?
**A.** The value was 8.1 ± 2.4 mmol/L.

**Q.** What about the “lung tissue and vascular walls (histology)” value [2] of the same molecule?
**A.** The value was “both lung tissue and vascular walls were normal”.

**Q.** What about the “blood glucose, Baseline” value ([3]; equal to 20 mg/kg of NSAIAs transdermally twice per day for 7 weeks) of the same molecule?
**A.** The value was 19.1 ± 3.2 mmol/L.

**Q.** And the “blood glucose, Average” value ([3]; fourth week to seventh week, no fasting, equal to 20 mg/kg of NSAIAs transdermally twice per day)?
**A.** Its value is 8.9 ± 1.7 mmol/L.

**Q.** Which antipyretic effect [4] does the source give for CCN(CC)CCOC(=O)C(C)c1ccc(CC(C)C)cc1 (centres unmarked) [HPC of ibuprofen, diethylaminoethyl 2-(ρ-isobutylphenyl) propionate] here?
**A.** The antipyretic effect was “almost the same effect as 100 mg/kg of ibuprofen”.

**Q.** What about the “anti-inflammatory activities, times stronger than parent drug ibuprofen” value [5] of the same molecule?
**A.** The value was “more than 5 times”.

**Q.** How did the “reduction in Aβ42 concentration in the brain” value (Tg2576 mouse model of AD; 50 mg/kg transdermally once per day for 2 months) turn out when CCN(CC)CCCOC(=O)c1ccccc1OC(C)=O.Cl [diethylaminopropyl acetylsalicylate.HCl] was run?
**A.** Its value is 70%.

**Q.** What about the Aβ42 concentration (Tg2576 mouse model of AD; 50 mg/kg transdermally once per day for 2 months, ELISA) of the same molecule?
**A.** The Aβ42 concentration was 2.3 ± 0.3 pmol/g tissue.

**Q.** And the “cognitive performance, radial-arm water-maze test of working memory” value (Tg2576 mouse model of AD; 50 mg/kg, 2 months)?
**A.** Its value is “performed as well as nontransgenic mice”.

**Q.** What about the “rats that acted completely normal after the treatment” value (spinal cord injuries) of the same molecule?
**A.** The value was 4.

**Q.** And the “rats that could walk after the treatment” value (spinal cord injuries)?
**A.** Its value is 10/10.
